Assay results published in article PMC12029992, “Beyond-Rule-of-Five Compounds Are Not Different: In Vitro–In Vivo Extrapolation of Female CD-1 Mouse Clearance Based on Merck Healthcare KGaA Compound Set” (Pharmaceuticals, 2025).

Assays:
[1] = system: female CD-1 mouse; assay: IVIVE of mouse clearance from microsomes (well-stirred model, regression correction); settings: for Fold obs. / pred. (mic.) CL,b,u - Kilford / in vitro (mic.) pred. CLint,b - Kilford / in vitro (mic.) pred. CLint,b,u - Kilford: Kilford fu,mic
From the text: (§1) Compounds with phase II metabolism were removed from the microsome set (N = 25). […] The following regression equations were derived for microsomes and hepatocytes, respectively: log predicted CLint = 0.8 * log scaled CLint + 0.6 and log predicted CLint = 0.6 * log scaled CLint + 0.8, with CLint expressed in mL/min/kg.
(§2) According to Sohlenius-Sternbeck et al., the following equations were used for IVIVE: scaled CLint,b=in vitro CLint∗microsomes/hepatocytes/gram of liver∗liver weight/body weight∗fu,p/fu,inc∗Rb
(§3) The physiological scaling factors, taken from Simcyp^TM version 13/1 (Certara), were 48 mg of microsomal protein per gram of liver (MPPGL), 101.7 × 10^6 hepatocytes per gram of liver (HPGL), a liver weight of 1.46 g, and a body weight of 0.025 kg. For microsomes and hepatocytes, fu,mic and fu,hep, were used as the unbound fraction in the incubation (fu,inc), respectively. predicted CLint,b=10^(log scaled CLint∗slope+intercept)
(§4) For microsomes, a slope of 0.8 and an intercept of 0.6 were used, and for hepatocytes, a slope of 0.6 and an intercept of 0.8, according to the regression equations derived above. predicted CL,b=pred. CLint,b∗QH/pred. Clint,b+QH
(§5) CLp/Rb observed CLint,b=QH∗obs. CL,b/QH−obs. CL,b
(§6) All unbound clearance terms were calculated by dividing the respective clearance by fu,p. predicted/observed CL,b,u=pred./obs. CL,b/fu,p
(§7) The above-described approach was applied for the IVIVE of clearance of the data set analyzed in this study. Additionally, in order to evaluate the impact of the Kilford calculations as a surrogate for the experimentally determined free fraction in the in vitro systems, clearance was extrapolated using the Kilford equations [16] using the same regression coefficients.

[2] = Determination of CLint in mouse microsomes (microsomal stability); assay type: in vitro ADME; settings: female CD-1 mouse microsomes
Experimental: Microsomal stability was assessed on a liquid handling platform (Tecan Freedom EVO-2 200 MCA384, Männedorf, Switzerland) using pooled female CD-1 mouse microsomes. Compounds (1 µM final) were pre-incubated with microsomes (final 0.5 mg/mL) for 5 min at 37 °C in phosphate buffer (50 mM, pH 7.4), which was followed by the start of the incubation by the addition of cofactor NADPH (final 1.5 mM). […] Incubations were carried out in singlicate. Aliquots were taken at time points of 0, 5, 10, 20, and 30 min. Additionally, two control samples (0 and 30 min) lacking the addition of NADPH were included in order to flag compounds with non-microsomal metabolism. After incubation, the samples were quenched by adding sample aliquots from four different compound incubations to a two-fold volume of acetonitrile (ACN) for bioanalytical cocktailing designed to avoid analytical interference. After centrifugation, the supernatants were analyzed by a standard reversed-phase liquid chromatography assay coupled to tandem mass spectrometry (UHPLC-MS/MS) (for details, see the Supplementary Materials).
The data were subjected to post-acquisition analysis by the Analyst software (version 1.7.2), and the percentage of compound remaining (defined as the ratio of the peak area at a given time point and that at the 0 min time point) was plotted against the incubation time. The first-order elimination rate constant (kel) was derived by non-linear regression using Biorails version 5.10.22/Morphit version 8.0 (The Edge Software Consultancy, Guildford, UK), and CLint values (expressed in µL/min/mg) were obtained by normalizing kel with the microsome concentration.

[3] = system: female CD-1 mouse; assay: IVIVE of mouse clearance from hepatocytes (well-stirred model, regression correction); settings: for Fold obs. / pred. (hep.) CL,b,u - Kilford / in vitro (hep.) pred. CLint,b - Kilford / in vitro (hep.) pred. CLint,b,u - Kilford: Kilford fu,hep
From the text: as §1, §2, §3, §4, §5, §6, §7

[4] = Kinetic solubility; assay type: physicochemical
Experimental: The kinetic solubility (KSOL) determination is carried out in a 96-well plate filtration format where the sample (2 μL of sample stock solution 10mM DMSO) is combined to 98 μL of 20 mM buffer phosphate pH 7.4. The filtration plate is then incubated and agitated at 250 rpm for 120 minutes. After stirring, the plate is centrifuged at 2500 rpm for 3 minutes, allowing all solvent to be collected in the lower microplate. Next to avoid pre-cipitation, 50 μL of the filtered solution is diluted with 50 μL of 2% DMSO in pH 7.4 buffer solution to yield a 100 μM sample solution ready for H(U)PLC analytics.
For the standard, each compound is prepared by combining 2 μL of the sample stock solution 10mM DMSO to 198 μL Acetonitrile/Methanol/Eluant A ([…]).
For the evaluation, wavelength with maximum sensitivity is to be selected. The kinetic solubility is determined according to following formulas, whereas S is the targeted value […]
L = area௦௔௠௣௟௘ × concentration௦௧௔௡ௗ௔௥ௗ × dilution factor௦௔௠௣௟௘area௦௧௔௡ௗ௔௥ௗ × dilution factor௦௧௔௡ௗ௔௥ௗ with: L= Concentration of solved compound in buffer [μg/ml] and S= Molar concentra-tion of solved compound in buffer [mol/L]
Chromatographic conditions: Column Waters XBridge Column C8 3.5μm (Waters Cat No 186003053); Column temperature 37°C; Autosampler Room temperature (approx.
25°C); Injection volume 10 μL (HPLC) / 3μL (UPLC); Wavelength 220 nm, 254 nm, 290 nm. Eluant A: 1 mL Formic Acid + 999 mL Ultrapure Water; Eluant B: 1 mL Formic Acid […]
Table S5. Gradient for UHPLC analysis
Time Eluent A (%) Eluent B (%) Flow (ml/min)
Reagents and Materials: Phosphate Buffer 20mM pH 7.4: EMS, Art No. 11601-40; DMSO Merck Art. No. 102950; Acetonitrile Merck, Art. No. 100030, Methanol Merck Art. No.
106007; Formic Acid Merck Art.No.100264; Acetonitrile Merck Art. No.10030; Filtration Plate Millipore MultiScreen HTS HV 0.45uM; 96 Well Millipore Art. No. MSHVN4510; Column Waters XBridge Column C8 3.5μm (Waters Cat. No. 186003053); HPLC vials VWR Cat. No. 5480028; Micro-Inserts VWR Cat. No. 548-0006; Screw caps VWR Cat. No. […]

[5] = microsomes, experimental fu,mic
[6] = hepatocytes, experimental fu,hep

| SMILES | Fold obs. / pred. (mic.) CL,b,u - Kilford ([1]; microsomes) | in vitro (mic.) pred. CLint,b - Kilford ([1]; microsomes) [mL/min/kg] | in vitro (mic.) pred. CLint,b,u - Kilford ([1]; microsomes) [mL/min/kg] | Fold obs. / pred. (mic.) CL,b,u - exp. fu,mic [1, 5] | in vitro (mic.) pred. CLint,b - exp. fu,mic [1, 5] [mL/min/kg] | in vitro (mic.) pred. CLint,b,u - exp. fu,mic [1, 5] [mL/min/kg] | Microsome CLint [2] [µL/min/mg] | Fold obs. / pred. (hep.) CL,b,u - Kilford ([3]; hepatocytes) | in vitro (hep.) pred. CLint,b - Kilford ([3]; hepatocytes) [mL/min/kg] | in vitro (hep.) pred. CLint,b,u - Kilford ([3]; hepatocytes) [mL/min/kg] | Fold obs. / pred. (hep.) CL,b,u - exp. fu,hep [3, 6] | in vitro (hep.) pred. CLint,b - exp. fu,hep [3, 6] [mL/min/kg] | in vitro (hep.) pred. CLint,b,u - exp. fu,hep [3, 6] [mL/min/kg] | Kinetic solubility PBS pH 7.4 [4] [µM] | further results |
| --- | --- | --- | --- | --- | --- | --- | --- | --- | --- | --- | --- | --- | --- | --- | --- |
| COc1cccc(OCCCN)c1-c1cc(Nc2cnc(C#N)cn2)n[nH]1 [MSC020] | 1.3 | 148.30 | 772.42 | 1.1 | 214.87 | 1119.12 | 165.3 | 1.5 | 99.13 | 516.30 | 1.5 | 103.91 | 541.18 | 165.4 |  |
| O=C(O)c1cc(-c2ccc(F)cc2F)ccc1O [MSC001] | 0.5 | 5.69 | 334.02 | 0.5 | 5.96 | 349.34 | 17.8 | 0.3 | 9.82 | 576.00 | 0.3 | 9.94 | 582.73 | > 200 |  |
| CNC(=O)c1cc(Oc2ccc3nc(N[C@@H]4CCCC[C@H]4O)sc3c2)ccn1 [MSC003] | 0.528 | 13.72 | 179.53 | 0.5 | 14.24 | 186.35 | 20.5 | 0.356 | 21.81 | 285.43 | 0.36 | 21.48 | 281.21 | 156.7 |  |
| N#Cc1c[nH]c2c(C(=O)N3CCN(CCc4ccc(F)cc4)CC3)cccc12 [MSC213] | 1.7 |  |  |  |  |  | 212.8 | 1.4 |  |  |  |  |  | 105.1 | in vitro (mic.) pred. CLint,b - Kilford ([1]; from microsomes): 59.38 mL/min/kg; in vitro (mic.) pred. CLint,b,u - Kilford ([1]; from microsomes): 1278.61 mL/min/kg; in vitro (mic.) pred. CLint,b - exp. fu,mic ([1]; from microsomes, exp. fu,mic): 127.90 mL/min/kg; in vitro (mic.) pred. CLint,b,u - exp. fu,mic ([1]; from microsomes, exp. fu,mic): 2754.05 mL/min/kg; Fold obs. / pred. (mic.) CL,b,u - exp. fu,mic ([1]; microsomes, exp. fu,mic): 1.1; in vitro (hep.) pred. CLint,b - Kilford ([3]; from hepatocytes): 83.55 mL/min/kg; in vitro (hep.) pred. CLint,b,u - Kilford ([3]; from hepatocytes): 1799.14 mL/min/kg; in vitro (hep.) pred. CLint,b - exp. fu,hep ([3]; from hepatocytes, exp. fu,hep): 89.51 mL/min/kg; in vitro (hep.) pred. CLint,b,u - exp. fu,hep ([3]; from hepatocytes, exp. fu,hep): 1927.40 mL/min/kg; Fold obs. / pred. (hep.) CL,b,u - exp. fu,hep ([3]; hepatocytes, exp. fu,hep): 1.3 |
